Positions of bridges follow the written chain, without caps; N, C: chain ends. Non-standard residues stand in square brackets, D forms with d. Residues, ends and D or L forms follow the SMILES beside them. ξ: configuration not given here. *: point of attachment. NMeF = CN[C@@H](Cc1ccccc1)C(=O)O; NMeI = CC[C@H](C)[C@H](NC)C(=O)O; Cha = N[C@@H](CC1CCCCC1)C(=O)O; NMeL = CN[C@@H](CC(C)C)C(=O)O; Thr(3ξ) = CC(O)[C@H](N)C(=O)O; NMeA = CN[C@@H](C)C(=O)O; Piperidide = C1CCN(*)CC1; {Puro} = puromycin; ξC = NC(CS)C(=O)O; Sar = CNCC(=O)O; tBu = CC(C)(C)*
Legend:
[1] = Identification of the metabolic site in mouse liver microsome (LC/MS); type: in vitro ADME; conditions: 10 uM, mouse liver microsome 0.5 mg protein/mL, 1 hour, with NADPH
Description: Compound P-113 cyclized peptide was metabolically reacted at a concentration of 10 uM with a microsome solution prepared at 0.5 mg protein/mL from mouse liver (male, manufactured by XENOTECH, USA) using 100 mM phosphate buffer (pH 7.4) for 1 hour in the presence of NADPH (FIG. 35). After the reaction, deproteinization treatment with acetonitrile was provided, and the resulting metabolites were analyzed with a high resolution LC/MS instrument (Q-TOF Ultima API, manufactured by Waters Corporation, USA). Mass chromatograms of the metabolites are shown below. […] MS/MS spectra of the peaks are shown below, respectively. The metabolites of Peak 1 and Peak 2 were assumed to be hydroxylated in the partial structures containing highly lipophilic side chain cyclohexyl groups. […] The metabolite of Peak 4 was assumed to have a thiol-containing site oxidized. Taking the ease of oxidation of this site into consideration, it was believed that the sulfur atom is likely to be the metabolic site.

[2] = Metabolic stability in mouse small intestinal microsome; type: in vitro ADME; conditions: Table 8, mouse
Description: (§1) The obtained compound was metabolically reacted at a concentration of 2 uM with mouse serum (male/female mixed, Valley Biomedical, USA) (adjusted to pH 7.4 with 33.5 mM HEPES buffer) for two hours. Deproteinization treatment with acetonitrile was provided over time, the amount of the remaining unchanged compound was analyzed using LC/MS, and the metabolic half-life (t1/2) was calculated. A microsome solution prepared at 0.5 mg protein/mL from mouse hepatic microsome and small intestinal microsome (male, XENOTECH, USA) using 100 mM phosphate buffer (pH 7.4) was metabolically reacted with the compound at a concentration of 1 uM for 30 minutes in the presence or absence of NADPH. Deproteinization treatment with acetonitrile was provided over time, the amount of the remaining unchanged compound was analyzed using LC/MS, and the hepatic-intrinsic clearance (CLh, int) and the small intestinal-intrinsic clearance (CLg, int) were calculated (Table 7). Such peptides were sufficiently slowly metabolized by hydrolysis with peptidases or the like in mouse sera and microsomes, contrary to peptides composed of natural amino acids having low lipophilicity.
(§2) Metabolic stability tests were carried out in the same manner as shown in 2-1.

[3] = Metabolic stability in mouse hepatic microsome; type: in vitro ADME; conditions: for Hepatic Microsome CLh, int (Mouse) In the absence of NADPH / microsomal CLint at 1 uM: 0.5 mg protein/mL, 1 uM, 30 minutes; for Hepatic Microsome CLh, int (Mouse) In the absence of NADPH: without NADPH; for Hepatic Microsome CLhint Mouse: Table 8, mouse; for microsomal CLint at 1 uM: male, mouse, liver microsomes, pH 7.4, with NADPH, read-out: Hepatic Microsome CLh, int (Mouse) In the presence of NADPH
Description: as §1, §2

[4] = Serum stability test in mouse serum; type: in vitro ADME; conditions: both sexes, pH 7.4, two hours, read-out: Serum stability t1/2 (Mouse)
Description: as §1

[5] = Metabolic stability in human hepatic microsome; type: in vitro ADME; conditions: for microsomal CLint at 1 uM: human, microsomes, pH 7.4, Hepatic Microsome CLhint Human
[6] = target: T1, soluble human IL-6R (IL-6R) (Homo sapiens, UniProt P08887); test: IL-6/IL-6R interaction by electrochemiluminescence immunoassay (protein denaturation by desulfurization solution); type: binding; conditions: 25 mM HEPES-K pH 7.6, 200 mM TCEP, 250 mM VA-044, 10 mM Cys, room temperature, 50 minutes
T1 sequence (P08887 20-355 limits assumed): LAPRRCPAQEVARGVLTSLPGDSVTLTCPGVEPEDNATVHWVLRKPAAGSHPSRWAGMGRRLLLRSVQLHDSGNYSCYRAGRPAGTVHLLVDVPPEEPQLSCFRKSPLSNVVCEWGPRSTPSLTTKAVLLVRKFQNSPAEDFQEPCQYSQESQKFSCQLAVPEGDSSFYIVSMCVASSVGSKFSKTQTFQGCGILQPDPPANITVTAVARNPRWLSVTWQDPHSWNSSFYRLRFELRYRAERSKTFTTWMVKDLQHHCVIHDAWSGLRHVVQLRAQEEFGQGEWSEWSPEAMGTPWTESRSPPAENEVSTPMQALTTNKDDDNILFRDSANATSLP
Description: Protein denaturation by a desulfurization reaction solution was evaluated (FIG. 34). As a model system, the effect of the desulfurization reaction condition on IL-6R was evaluated by detecting interaction between IL-6 and IL-6R using electrochemiluminescence immunoassay. First, 750 ng of anti-IL-6R antibody clone No. 17506 (R&D biosystems) was applied to a MSD Multi-array 384-well plate (MSD) and incubated at 4° C. overnight so that the antibody was immobilized on to the plate. The plate was washed with 80 μl of PBST three times to remove the unbound antibody, and blocking was then carried out with 2% skimmed milk for 1 hour. The blocking agent was washed away from the plate with 80 μl of PBST three times, after which 10 μl of 25 nM soluble human IL-6R (IL-6R) was added and the plate was shaken at room temperature for 50 minutes. The plate was washed with 80 μl of PBST three times, a desulfurization reaction solution (25 mM HEPES-K (pH 7.6), 200 mM TCEP, 250 mM VA-044 and 10 mM Cys) was added and the plate was shaken at room temperature for 50 minutes. The plate was washed with 80 μl of PBST three times, 10 μl of human IL-6-BAP (500 nM) was added and the plate was shaken at room temperature for 50 minutes. […] The plate was washed with 80 μl of PBST three times, and 35 μl of 2× read buffer (MSD, R92SC-3) was added, followed by measurement with SECTOR Imager 2400 (MSD) (FIG. 34).

[7] = side chain carboxyl group, phenolic hydroxy group or tetrazole; cited from earlier work
[8] = 2 h, pH 7.1

Question: With CC(C)C[C@@H]1NC(=O)CSC[C@@H](C(=O)N[C@@H](CC2CCCCC2)C(=O)N2CCCCC2)NC(=O)[C@H](C)NC(=O)[C@H](C(C)O)NC(=O)[C@H]([C@@H](C)O)NC(=O)[C@H](CC2CCCCC2)NC(=O)[C@H](C)N(C)C1=O (stereo partly drawn) [Compound P-113, Ac*-Leu-MeAla-Cha-Thr-Thr-Ala-Cys*-Cha-piperidine] ({CH2CO}-L[NMeA][Cha]T[Thr(3ξ)]AC[Cha]-Piperidide; thioether N-7) as the compound, how does the metabolites detected [1] read?
Answer: Four peaks corresponding to hydroxides

Question: For CC[C@H](C)[C@H]1C(=O)N[C@H](C(=O)N2CCCCC2)CSCC(=O)N(C)[C@@H](C)C(=O)N(C)[C@@H](Cc2ccccc2)C(=O)N(C)[C@@H](CC(C)C)C(=O)N[C@@H]([C@@H](C)O)C(=O)N(C)CC(=O)N(C)[C@@H](CC(C)C)C(=O)N[C@@H](COC(C)(C)C)C(=O)N1C [Compound P-109, Ac*-MeAla-MePhe-MeLeu-Thr-MeGly-MeLeu-Ser(tBu)-MeIle-Cys*-piperidine] ({CH2CO}-[NMeA][NMeF][NMeL]T[Sar][NMeL]S(tBu)[NMeI]C-Piperidide; thioether N-9), which “Intestinal Microsome CLg, int Mouse” value [2] is on record?
Answer: 45.8 ul/min/mg Protein

Question: What about the “Hepatic Microsome CLh, int (Mouse) In the absence of NADPH” value [3] of the same compound?
Answer: 10.3 ul/min/mg Protein

Question: What about the “Hepatic Microsome CLhint Mouse” value [3] of the same compound?
Answer: 57.4 ul/min/mg Protein

Question: What about the microsomal CLint at 1 uM [3] of the same compound?
Answer: 57.4 µL/min/mg

Question: What about the half-life at 2 uM [4] of the same compound?
Answer: > 60 h

Question: What about the “Hepatic microsome CLhint (Human) In the absence of NADPH” value [5] of the same compound?
Answer: 11 ul/min/mg Protein

Question: And the “Hepatic microsome CLhint (Human) In the presence of NADPH” value [5]?
Answer: 158 ul/min/mg Protein

Question: What about the microsomal CLint at 1 uM [5] of the same compound?
Answer: 158 µL/min/mg

Question: For OC1CSSCC1O (stereo not shown) [oxidized DTT], which “effect on interaction between IL-6R and IL-6” value [6] is on record?
Answer: restores the interaction between IL-6R and IL-6

Question: For c1nnn[nH]1 [Tetrazole], which “pKa as an acid” value [7] is on record?
Answer: 5.6

Question: With CC[C@H](C)[C@H]1C(=O)NC(C(=O)N2CCCCC2)CSCC(=O)N(C)[C@@H](Cc2ccccc2)C(=O)N(C)[C@@H](C)C(=O)N(C)[C@@H](Cc2ccccc2)C(=O)N(C)[C@@H](CC(C)C)C(=O)N[C@@H]([C@@H](C)O)C(=O)N(C)CC(=O)N(C)[C@@H](CC(C)C)C(=O)N[C@@H](COC(C)(C)C)C(=O)N1C (stereo partly drawn) [Compound P-112, Ac*-MePhe-MeAla-MePhe-MeLeu-Thr-MeGly-MeLeu-Ser(tBu)-MeIle-Cys*-piperidine] ({CH2CO}-[NMeF][NMeA][NMeF][NMeL]T[Sar][NMeL]S(tBu)[NMeI][ξC]-Piperidide; thioether N-10) as the compound, how does the “Intestinal Microsome CLg, int Mouse” value [2] read?
Answer: 25.9 ul/min/mg Protein

Question: And the “Hepatic Microsome CLh, int (Mouse) In the absence of NADPH” value [3]?
Answer: 17.9 ul/min/mg Protein

Question: What about the “Hepatic Microsome CLhint Mouse” value [3] of the same compound?
Answer: 30.4 ul/min/mg Protein

Question: And the “Mouse Hepatic Microsome CLh, int” value ([3]; Table 9, thioether versus sulfoxide)?
Answer: 30.4 ul/min/mg Protein

Question: What about the microsomal CLint at 1 uM [3] of the same compound?
Answer: 30.4 µL/min/mg

Question: And the half-life at 2 uM [4]?
Answer: > 60 h

Question: What about the microsomal CLint at 1 uM [5] of the same compound?
Answer: 118 µL/min/mg

Question: Which “amount of remaining RNA compound under desulfurization reaction condition” value [8] does the source give for “5′-AGCUUAGUCA-puromycin-3′ (3' {Puro}, sugars by position and backbone not given here) [Compound RP-1]” here?
Answer: not changed

From patent publication US9409952B2, “Peptide-compound cyclization method” (Chugai Seiyaku Kabushiki Kaisha, priority 2011, dated 2016)
